According to patent US5001064A, “Phosphatidylinositol 4-kinase” (Washington University, priority 1988, dated 1991):
Values joined by “and” are separate entries in the source; they are usually repeats but may differ in a detail not shown here. Equal values may be shown once. “Also recorded” adds a separate entry of the source. Read-outs that look alike come from different tables or passages of the source. Values belong to the compound of their own block, whether it stands above or below them.

Experiments:
[1] = target: T1, PtdIns 4-kinase (Bos taurus, UniProt A6QLN5); assay: PtdIns 4-kinase activity assay: kinetic parameters, specific activity, pH optimum; assay type: biochemical, bovine; settings: for Km: assuming a molecular weight of 835.2 for PtdIns, read-out: apparent Km for PtdIns
T1 construct: It constitutes the major PtdIns 4-kinase activity of bovine uteri; from tissue; host or cells: bovine uterus (acetone powder, purified over ammonium sulfate, Mono Q, S-Sepharose, Mono Q, Mono P and hydroxylapatite)
Method: (§1) PtdIns 4-kinase activity was assayed in 60 μl at 30° C. in 20 mM BisTris-HCl (pH 7.0), 10 mM MgCl2, 1.0% Triton X-100, 0.25 mg/ml phosphatidylinositol, and 150 μM ATP (1.25 μCi[-^32 P]ATP), unless otherwise noted. The reaction was terminated by the addition of 12 μl of cold HCl, 120 μl of cold methanol, 150 μl of chloroform, and 40 μl of H2 O. The extracted samples were centrifuged at 12,000 × g for 1 min. and the aqueous layer removed and discarded. When needed, the organic phase was washed with 40 μl of cold methanol and 40 μl of cold 1.0 N HCl, centrifuged at 12,000 × g, and the aqueous layer was removed. The organic phase was then dried under vacuum in a Savant speed-vac, resuspended in 40 μl of chloroform/methanol (2:1), and chromatographed on potassium oxalate-impregnated Silica Gel 60 thin layer chromatography plates (TLC). The solvent system used consisted of chloroform/methanol/ammonium hydroxide/water (51:39.6:3:8.4). For two-dimensional thin layer chromatography, the preceding solvent system was used for the first dimension, and chloroform/methanol/acetic acid/water (50:39:1:10) was used for the second dimension. Standards were visualized by exposing the TLC plate to iodine vapor. The reaction product, phosphatidylinositol 4-phosphate, was visualized by autoradiography, and the corresponding area of the TLC plate was scraped and quantitated by Cherenkov counting. This assay was linear with respect to both protein concentration and time. For tests utilizing [^3 H]PtdIns, the corresponding areas of the TLC plates were scraped and the silica powder was suspended in a gel of Aquasol/H2 O (4:1) before counting. All assays (except column fractions) were done in duplicate or triplicate.
The purified PtdIns 4-kinase was used to determine the kinetic parameters of this enzyme for ATP and PtdIns. Optimal enzymatic activity was found at concentrations of ATP above 100 μM. […] In order to avoid potential effects on enzymatic activity due to changes in the Triton X-100/PtdIns micelles used as substrate, a constant molar ratio of Triton X-100 to PtdIns was used, and the concentration of Triton X-100 was maintained above its critical micellar concentration. […] The different Vmax values may be explained by the fact that the ATP substrate saturation curve was performed at a pH of 7.4 rather than 7.0.
In order to optimize the assay of this enzyme, the pH optimum for Ptdlns 4-kinase was determined. This enzyme was optimally active in the pH range of 6.0-7.0 (FIG. 4). Above a pH of 7.0 and below a pH of 6.0 the activity of this enzyme decreased sharply.

[2] = target: T1, PtdIns 4-kinase; assay: Specificity of PtdIns 4-kinase for a nucleotide phosphoryl donor ([3H]PtdIns as substrate); assay type: biochemical, bovine
Method: as §1, with “This assay was linear with respect to both protein concentration and time.” left out

[3] = target: T1, PtdIns 4-kinase; assay: Influence of divalent cations (Mg2+, Ca2+) on PtdIns 4-kinase activity; assay type: biochemical, bovine
Method: as §1, with “The” for “PtdIns 4-kinase activity was assayed in 60 μl at 30° C. in 20 mM BisTris-HCl (pH 7.0), 10 mM MgCl2, 1.0% Triton X-100, 0.25 mg/ml phosphatidylinositol, and 150 μM ATP (1.25 μCi[-^32 P]ATP), unless otherwise noted. The”, “The solvent system used consisted of chloroform/methanol/ammonium hydroxide/water (51:39.6:3:8.4).” left out, “This assay was linear with respect to both protein concentration and time.” left out

[4] = test system: PtdIns 4-kinase/PtdIns-4-P 5-kinase purified from bovine brain myelin; settings: Saltiel et al., Biochem. J. 241, 759-763 (1987); cited from earlier work
[5] = nonlinear regression, Hill equation

T1 sequence (A6QLN5 1-479): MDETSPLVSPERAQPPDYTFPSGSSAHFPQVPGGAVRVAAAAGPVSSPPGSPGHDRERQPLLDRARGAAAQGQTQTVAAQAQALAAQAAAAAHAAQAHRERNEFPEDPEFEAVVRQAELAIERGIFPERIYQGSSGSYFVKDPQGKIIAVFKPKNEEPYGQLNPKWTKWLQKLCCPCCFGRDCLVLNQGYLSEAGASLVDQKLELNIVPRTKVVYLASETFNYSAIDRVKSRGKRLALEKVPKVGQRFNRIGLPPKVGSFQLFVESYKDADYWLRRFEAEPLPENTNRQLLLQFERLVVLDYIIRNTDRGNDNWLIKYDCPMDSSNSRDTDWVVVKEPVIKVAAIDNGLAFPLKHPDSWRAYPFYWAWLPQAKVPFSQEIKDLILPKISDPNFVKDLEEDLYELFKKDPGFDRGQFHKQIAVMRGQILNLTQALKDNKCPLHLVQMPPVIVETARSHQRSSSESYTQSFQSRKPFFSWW

Compound: Nc1ncnc2c1ncn2[C@@H]1O[C@H](COP(=O)(O)OP(=O)(O)OP(=O)(O)O)[C@@H](O)[C@H]1O [ATP]
ATP concentration for optimal enzymatic activity ([1]; FIG. 3A): above 100 μM
Vmax, ATP concentration varied ([1]; pH 7.4): 2.2 µmol/mg/min
utilization as phosphoryl donor (words) ([2]; [3H]PtdIns as substrate): utilized; also recorded: will utilize
activity at 150 µM ([2]; read-out: Relative activity with nucleotide donor): 100%

Compound: [Ca+2] [Ca^2+]
IC50 ([3]; 100 μM ATP, 100 μM EGTA, FIG. 6, read-out: free Ca2+ concentration giving 50% inhibition): ~300 µM

Hill coefficient of Mg2+ dependence [3, 5]: 1.9
Ks of Mg2+ dependence [3, 5]: 0.36
Compound: [Mg+2] [Mg^2+]

PtdIns concentration for saturation of enzyme activity ([1]; FIG. 3B): above 0.2 mg/ml
Km ([1]; listed as phosphatidylinositol (PtdIns)): ~26 µM
Km [1]: 26 µM and ~26 µM
Vmax, PtdIns concentration varied ([1]; pH 7.0): 3.3 µmol/mg/min
apparent Km for PtdIns ([1]; purified enzyme, pH 7.0 (Tris-HCl), constant Triton X-100/PtdIns ratio): 22 µg/mL
Compound: phosphatidylinositol [PtdIns]
Km [4]: 400 µM
